Conversion product data for one compound are collected here from publication PMC11489226 (Archives of Toxicology, 2024).

Each structure is given as a SMILES string.

The target in the data set is T1, CYP2C9 (Homo sapiens, UniProt P11712).
T1 construct: V5-His (vector-encoded) (C); expressed in transfected cells
The experiment in a line: Metabolism in transgenic HEK293 cells expressing CYP2C9. Format: in vitro ADME. The note with it: HEK293CYP2C9; 10 µM substrate, 24 h. On the procedure:
For the generation of transgenic cell lines, we used semi-adherent HEK293 cells (DSMZ, ACC305, human embryonic kidney cells) which were cultured on a daily basis in DMEM medium supplemented with 10% (FCS) and 1% penicillin/streptomycin. In a first step CYP1A2, CYP2C8, CYP2C9, CYP3A4, CYP2A6, and CYP2E1 cDNA were cloned into the plasmid pcDNATM3.1/V5-His TOPO® using human liver RNA as a template and using the following primers: CYP1A2 for5′-[…]-3′, CYP1A2 rev 5′-[…]-3′; CYP2C8 for 5′-[…]-3′, CYP2C8 rev 5′-[…]-3′; CYP2C9 for 5′-[…]-3′, CYP2C9 rev 5′-[…]-3′; CYP3A4 for 5′-[…]-3′, CYP3A4 rev 5′-[…]-3′, CYP2A6 for 5′-[…]-3′, CYP2A6 rev 5′-[…]-3′; CYP2E1 for 5′-[…]-3′, CYP2E1 rev 5′-[…]-3′. Final constructs were verified with Sanger DNA sequencing and restriction digestion. For transfection, 3 × 10^6 HEK293 cells were pre-incubated in a 10 cm dish in DMEM medium with 10% FCS, but without antibiotics, for 18 to 24 h. When the cells reached approximately 70% confluency, they were transfected using TransIT-LT1 transfection reagent (Biozol, Eiching, Germany). […]
HEK293 cells overexpressing the respective CYP enzymes were seeded onto 6-well plates and were treated with or without 10 µM of the respective probe drug in DMEM medium for 24 hours at 37 °C and 5 % CO2. […] Analytes were measured by LC-MS/MS either in methanol cell lysates or in DMEM supernatant. […]

T1 sequence (P11712 whole entry): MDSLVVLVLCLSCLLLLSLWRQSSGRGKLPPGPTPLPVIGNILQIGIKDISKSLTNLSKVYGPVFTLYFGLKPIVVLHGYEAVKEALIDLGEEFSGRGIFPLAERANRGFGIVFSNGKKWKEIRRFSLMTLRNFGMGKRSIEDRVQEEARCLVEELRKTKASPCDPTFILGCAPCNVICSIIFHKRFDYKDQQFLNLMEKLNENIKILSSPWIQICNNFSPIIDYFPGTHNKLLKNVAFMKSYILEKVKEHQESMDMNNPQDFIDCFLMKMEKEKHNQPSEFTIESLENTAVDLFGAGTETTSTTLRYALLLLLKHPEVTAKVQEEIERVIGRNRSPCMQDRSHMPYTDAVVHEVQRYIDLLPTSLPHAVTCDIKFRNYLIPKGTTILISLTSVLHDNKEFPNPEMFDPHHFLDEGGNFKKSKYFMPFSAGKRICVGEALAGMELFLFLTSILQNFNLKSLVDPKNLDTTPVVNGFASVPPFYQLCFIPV

Turning to `Cc1cccc(Nc2ccncc2S(=O)(=O)NC(=O)NC(C)C)c1` [Torasemide], the Conversion product result is “Hydroxy torasemide”.
